Columns and labels:
Type in all cases: cell-based
Cav1.2/β2/α2/δ1 (ICa,L) = Cav1.2/β2/α2/δ1 (ICa,L) (Homo sapiens, UniProt Q13936); assay: perforated whole-cell patch clamp; details: AZM alone, external pH 7.4
KCNQ1/E1 (IKs) = KCNQ1/E1 (IKs) (Homo sapiens, UniProt P51787); assay: perforated whole-cell patch clamp; details: AZM alone, external pH 7.4
hNav1.5 (INa) = hNav1.5 (INa) (Homo sapiens, UniProt Q14524); assay: whole-cell patch clamp; details: AZM alone, external pH 7.4
hERG (IKr) [1] = molecular target: T1, hERG (IKr) (Homo sapiens, UniProt Q12809); assay: whole-cell patch clamp
T1 sequence (Q12809 whole entry): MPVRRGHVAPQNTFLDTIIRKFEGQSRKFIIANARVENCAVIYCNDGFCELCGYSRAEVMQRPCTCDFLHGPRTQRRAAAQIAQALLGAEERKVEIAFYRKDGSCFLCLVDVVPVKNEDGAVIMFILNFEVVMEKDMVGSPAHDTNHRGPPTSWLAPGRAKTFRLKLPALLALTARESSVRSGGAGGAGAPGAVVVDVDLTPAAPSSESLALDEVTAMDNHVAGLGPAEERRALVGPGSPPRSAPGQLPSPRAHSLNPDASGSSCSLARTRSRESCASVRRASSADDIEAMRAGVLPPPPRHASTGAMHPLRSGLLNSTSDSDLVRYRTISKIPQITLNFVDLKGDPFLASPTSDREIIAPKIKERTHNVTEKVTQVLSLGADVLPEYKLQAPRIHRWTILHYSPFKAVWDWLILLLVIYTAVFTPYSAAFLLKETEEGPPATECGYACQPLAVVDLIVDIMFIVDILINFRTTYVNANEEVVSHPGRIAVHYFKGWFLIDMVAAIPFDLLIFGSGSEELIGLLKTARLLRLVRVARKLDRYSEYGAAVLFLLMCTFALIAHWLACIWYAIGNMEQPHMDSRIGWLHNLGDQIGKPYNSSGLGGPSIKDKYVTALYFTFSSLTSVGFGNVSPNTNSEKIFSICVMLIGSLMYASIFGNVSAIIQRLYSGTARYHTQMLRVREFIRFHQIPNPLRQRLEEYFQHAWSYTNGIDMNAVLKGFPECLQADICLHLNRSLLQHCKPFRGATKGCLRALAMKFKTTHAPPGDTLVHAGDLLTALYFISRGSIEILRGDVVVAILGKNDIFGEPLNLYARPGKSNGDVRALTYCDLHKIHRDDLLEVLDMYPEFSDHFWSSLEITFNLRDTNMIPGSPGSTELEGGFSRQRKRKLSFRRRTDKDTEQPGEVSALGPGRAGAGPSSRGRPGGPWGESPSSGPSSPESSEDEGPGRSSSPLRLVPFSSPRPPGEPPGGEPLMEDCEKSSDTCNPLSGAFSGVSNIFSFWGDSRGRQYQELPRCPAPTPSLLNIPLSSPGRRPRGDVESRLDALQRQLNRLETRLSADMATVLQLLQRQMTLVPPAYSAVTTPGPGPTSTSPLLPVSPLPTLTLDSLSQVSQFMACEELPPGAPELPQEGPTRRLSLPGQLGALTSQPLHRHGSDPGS

Kir2.1 (IK1) = molecular target: T2, Kir2.1 (IK1) (Homo sapiens, UniProt P63252); assay: whole-cell patch clamp, pulse current inhibition
T2 sequence (P63252 1-427): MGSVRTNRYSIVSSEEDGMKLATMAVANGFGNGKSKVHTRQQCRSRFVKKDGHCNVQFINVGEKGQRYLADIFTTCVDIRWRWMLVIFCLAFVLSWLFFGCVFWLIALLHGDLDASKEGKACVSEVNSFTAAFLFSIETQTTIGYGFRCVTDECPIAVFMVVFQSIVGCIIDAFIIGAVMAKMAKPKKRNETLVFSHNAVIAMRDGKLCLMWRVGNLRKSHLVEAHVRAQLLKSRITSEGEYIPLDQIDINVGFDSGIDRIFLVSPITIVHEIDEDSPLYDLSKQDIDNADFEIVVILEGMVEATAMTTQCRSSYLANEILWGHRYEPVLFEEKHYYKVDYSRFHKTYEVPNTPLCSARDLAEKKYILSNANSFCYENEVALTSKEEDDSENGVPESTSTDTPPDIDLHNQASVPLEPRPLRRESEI

hERG (IKr) [2] = molecular target: T1, hERG (IKr); assay: whole-cell patch clamp, tail current inhibition

Cav1.2/β2/α2/δ1 (ICa,L), sequence (P54289 957-1103): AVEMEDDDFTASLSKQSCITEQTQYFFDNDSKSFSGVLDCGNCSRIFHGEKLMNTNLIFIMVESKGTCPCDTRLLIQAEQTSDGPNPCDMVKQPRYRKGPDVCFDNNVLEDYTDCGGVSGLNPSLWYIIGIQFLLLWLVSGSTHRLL
Cav1.2/β2/α2/δ1 (ICa,L), sequence (Q08289 whole entry, further chain): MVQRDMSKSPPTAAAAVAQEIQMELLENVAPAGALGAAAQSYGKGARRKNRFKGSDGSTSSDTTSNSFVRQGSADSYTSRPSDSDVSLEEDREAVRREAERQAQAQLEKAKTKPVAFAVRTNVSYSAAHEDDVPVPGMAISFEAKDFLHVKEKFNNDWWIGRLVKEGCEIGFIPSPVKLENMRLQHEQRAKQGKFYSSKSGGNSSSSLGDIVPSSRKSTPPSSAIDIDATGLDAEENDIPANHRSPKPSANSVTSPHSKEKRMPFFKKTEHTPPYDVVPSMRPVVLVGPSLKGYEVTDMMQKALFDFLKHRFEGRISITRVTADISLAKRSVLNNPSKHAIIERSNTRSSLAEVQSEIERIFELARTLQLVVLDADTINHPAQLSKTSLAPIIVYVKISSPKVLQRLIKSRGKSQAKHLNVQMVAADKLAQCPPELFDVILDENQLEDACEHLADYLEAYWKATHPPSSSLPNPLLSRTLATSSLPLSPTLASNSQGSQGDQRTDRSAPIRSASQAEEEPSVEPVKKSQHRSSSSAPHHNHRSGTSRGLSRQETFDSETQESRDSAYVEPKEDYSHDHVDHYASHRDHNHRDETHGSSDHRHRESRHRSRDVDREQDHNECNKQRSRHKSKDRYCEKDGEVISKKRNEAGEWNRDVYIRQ
Cav1.2/β2/α2/δ1 (ICa,L), sequence (Q13936 whole entry): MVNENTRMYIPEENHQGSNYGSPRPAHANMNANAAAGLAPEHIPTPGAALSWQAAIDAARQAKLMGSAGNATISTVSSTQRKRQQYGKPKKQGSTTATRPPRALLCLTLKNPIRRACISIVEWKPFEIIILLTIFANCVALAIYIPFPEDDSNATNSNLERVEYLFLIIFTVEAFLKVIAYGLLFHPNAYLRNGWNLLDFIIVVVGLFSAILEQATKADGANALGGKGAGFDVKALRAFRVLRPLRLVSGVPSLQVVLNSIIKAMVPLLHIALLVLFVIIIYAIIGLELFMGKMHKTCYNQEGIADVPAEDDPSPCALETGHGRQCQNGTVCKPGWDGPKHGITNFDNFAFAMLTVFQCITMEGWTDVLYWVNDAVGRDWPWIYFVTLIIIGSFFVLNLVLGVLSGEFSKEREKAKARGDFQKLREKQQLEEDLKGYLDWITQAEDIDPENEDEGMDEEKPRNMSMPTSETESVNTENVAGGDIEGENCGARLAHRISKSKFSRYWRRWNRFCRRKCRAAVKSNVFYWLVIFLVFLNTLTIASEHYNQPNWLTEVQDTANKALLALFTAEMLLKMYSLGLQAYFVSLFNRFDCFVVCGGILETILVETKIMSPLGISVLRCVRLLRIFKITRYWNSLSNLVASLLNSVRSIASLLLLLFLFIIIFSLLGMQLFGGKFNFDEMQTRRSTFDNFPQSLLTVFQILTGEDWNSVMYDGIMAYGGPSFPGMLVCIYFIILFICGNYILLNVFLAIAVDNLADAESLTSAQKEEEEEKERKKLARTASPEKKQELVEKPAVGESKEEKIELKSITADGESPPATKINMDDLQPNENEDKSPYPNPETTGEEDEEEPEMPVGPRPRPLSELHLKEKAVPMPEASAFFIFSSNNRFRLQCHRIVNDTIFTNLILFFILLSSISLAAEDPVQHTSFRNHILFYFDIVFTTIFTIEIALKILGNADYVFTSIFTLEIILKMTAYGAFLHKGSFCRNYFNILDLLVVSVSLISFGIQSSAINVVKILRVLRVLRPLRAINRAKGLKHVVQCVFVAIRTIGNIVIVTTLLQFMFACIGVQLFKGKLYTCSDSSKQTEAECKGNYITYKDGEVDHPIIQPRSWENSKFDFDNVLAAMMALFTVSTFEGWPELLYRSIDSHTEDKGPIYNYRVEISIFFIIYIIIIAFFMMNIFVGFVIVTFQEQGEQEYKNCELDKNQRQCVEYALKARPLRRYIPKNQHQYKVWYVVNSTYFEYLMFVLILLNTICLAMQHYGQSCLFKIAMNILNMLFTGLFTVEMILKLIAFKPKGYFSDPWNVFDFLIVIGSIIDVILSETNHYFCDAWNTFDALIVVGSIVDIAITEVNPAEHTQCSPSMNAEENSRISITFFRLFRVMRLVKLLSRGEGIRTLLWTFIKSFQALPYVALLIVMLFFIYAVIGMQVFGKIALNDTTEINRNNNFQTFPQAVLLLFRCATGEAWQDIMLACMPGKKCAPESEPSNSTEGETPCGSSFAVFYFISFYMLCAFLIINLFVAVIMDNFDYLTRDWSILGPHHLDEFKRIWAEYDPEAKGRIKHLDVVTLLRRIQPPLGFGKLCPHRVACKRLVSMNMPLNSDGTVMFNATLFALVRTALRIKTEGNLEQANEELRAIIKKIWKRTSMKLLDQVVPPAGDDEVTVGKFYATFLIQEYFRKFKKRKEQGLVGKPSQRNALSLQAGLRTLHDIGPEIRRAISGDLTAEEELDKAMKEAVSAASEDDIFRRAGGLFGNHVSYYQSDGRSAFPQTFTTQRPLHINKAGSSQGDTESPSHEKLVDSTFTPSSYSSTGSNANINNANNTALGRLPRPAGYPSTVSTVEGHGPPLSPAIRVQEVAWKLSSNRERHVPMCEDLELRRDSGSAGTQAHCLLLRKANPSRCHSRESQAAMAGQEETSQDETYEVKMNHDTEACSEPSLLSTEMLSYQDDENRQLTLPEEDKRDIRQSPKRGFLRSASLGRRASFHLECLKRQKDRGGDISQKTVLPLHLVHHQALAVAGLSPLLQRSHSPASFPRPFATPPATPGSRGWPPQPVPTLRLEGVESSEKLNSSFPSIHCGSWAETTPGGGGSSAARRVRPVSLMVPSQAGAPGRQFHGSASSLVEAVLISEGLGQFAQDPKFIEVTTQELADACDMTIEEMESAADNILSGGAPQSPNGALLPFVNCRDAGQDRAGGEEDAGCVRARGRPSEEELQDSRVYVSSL
Cav1.2/β2/α2/δ1 (ICa,L), sequence (P54289 25-956): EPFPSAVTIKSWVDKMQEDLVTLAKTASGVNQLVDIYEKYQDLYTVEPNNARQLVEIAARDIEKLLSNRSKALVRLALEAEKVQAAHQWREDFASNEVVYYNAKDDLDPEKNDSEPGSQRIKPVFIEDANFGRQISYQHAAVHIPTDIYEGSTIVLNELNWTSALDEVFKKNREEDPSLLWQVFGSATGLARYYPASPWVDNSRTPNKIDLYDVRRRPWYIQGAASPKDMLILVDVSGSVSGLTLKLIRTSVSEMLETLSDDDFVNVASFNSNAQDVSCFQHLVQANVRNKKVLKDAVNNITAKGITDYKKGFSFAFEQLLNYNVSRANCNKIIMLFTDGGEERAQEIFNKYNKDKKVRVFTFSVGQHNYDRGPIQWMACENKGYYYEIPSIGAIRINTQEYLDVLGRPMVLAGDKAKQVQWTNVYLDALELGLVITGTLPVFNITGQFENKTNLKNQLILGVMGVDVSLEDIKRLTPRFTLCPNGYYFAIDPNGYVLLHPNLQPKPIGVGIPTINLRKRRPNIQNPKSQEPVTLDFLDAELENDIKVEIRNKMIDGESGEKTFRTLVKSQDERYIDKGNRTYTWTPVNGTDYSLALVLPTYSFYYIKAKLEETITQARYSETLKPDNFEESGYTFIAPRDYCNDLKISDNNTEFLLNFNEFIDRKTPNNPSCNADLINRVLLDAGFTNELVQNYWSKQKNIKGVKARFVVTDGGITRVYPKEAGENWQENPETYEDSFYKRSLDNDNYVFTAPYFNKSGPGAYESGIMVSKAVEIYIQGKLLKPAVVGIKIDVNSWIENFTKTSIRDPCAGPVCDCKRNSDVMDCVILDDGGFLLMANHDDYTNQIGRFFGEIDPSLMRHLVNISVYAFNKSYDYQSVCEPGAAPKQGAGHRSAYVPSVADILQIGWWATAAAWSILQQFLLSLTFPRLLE

SMILES: CC[C@H]1OC(=O)[C@H](C)[C@@H](O[C@H]2C[C@@](C)(OC)[C@@H](O)[C@H](C)O2)[C@H](C)[C@@H](O[C@@H]2O[C@H](C)C[C@H](N(C)C)[C@H]2O)[C@](C)(O)C[C@@H](C)CN(C)[C@H](C)[C@@H](O)[C@]1(C)O [azithromycin]
- % reduction at 100 μM (Cav1.2/β2/α2/δ1 (ICa,L)): < 35%
- % reduction at 100 μM (KCNQ1/E1 (IKs)): < 35%
- % reduction at 100 μM (hNav1.5 (INa)): < 35%
- % reduction at 100 μM (hERG (IKr) [1]): < 35%

SMILES: CCN(CCO)CCCC(C)Nc1ccnc2cc(Cl)ccc12 (stereo not drawn) [hydroxychloroquine]
- IC50 (Kir2.1 (IK1)): 34 ± 5 µM
- IC50 (hERG (IKr) [2]): 10 ± 0.6 µM
